In article PMC11953117 (Cancer Chemotherapy and Pharmacology, 2025):
Where two headings read alike, the source gives them in different places.

Experiments:
[1] = tested on: AKT; set-up: method as in PMID 29066505; conditions: 480 mg BID [4/3] versus 320 mg continuous dosing; cited from earlier work
[2] = Exposure–response analysis (logistic regression) of safety endpoints; type: in vivo, human
Description: (§1) The exposure–response analyses were conducted using a subset of patients from the PopPK analysis where capivasertib was used as monotherapy. […] As different schedules were assessed between and within studies, the exposure metrics were derived for the last dose of the last dosing day in the second week of treatment (i.e. on days 14, 11, and 9 for the continuous, [4/3] and [2/5] schedules, respectively), to ensure SS conditions, using the planned dose. […] The relative dose intensity (RDI) was calculated as the percentage of the average weekly dose relative to the PWD to examine the tolerability of capivasertib monotherapy at the given dosing schedules.
Logistic regression models were used to establish associations between the probability of the safety endpoints with the exposure metrics at a statistically significant level of 0.005.

[3] = set-up: method as in PMID 29066505, PMID 26931343; conditions: monotherapy, cited from earlier work; for recommended phase 2 dose: based on DLTs
[4] = Capivasertib exposure metrics at steady state projected with PopPK model, patients with solid tumors; type: in vivo; conditions: human, plasma, oral; for concentration at 12 h: read-out: Cmin
Description: Study 1 (NCT01226316) was a phase 1 open-label multipart study. […] The duration of the treatment cycles was 21 days. […] [18]. […] [18, 25, 39].
Study 4 (NCT01353781) was a phase 1 dose-escalation study in Japanese patients with advanced solid malignancies.
as §1

[5] = univariate logistic regression, significance level 0.005
[6] = 80 mg, Study 1, Continuous BID, PWD 1120 mg, N=5, median (range)
[7] = 80 mg, Study 4 (Japanese patients), Continuous BID, PWD 1120 mg, N=3, median (range)
[8] = 240 mg, Study 4 (Japanese patients), Continuous BID, PWD 3360 mg, N=7, median (range)
[9] = 320 mg, Study 4 (Japanese patients), Continuous BID, PWD 4480 mg, N=6, median (range)

For `NC1(C(=O)N[C@@H](CCO)c2ccc(Cl)cc2)CCN(c2ncnc3[nH]ccc23)CC1` [capivasertib, 4-amino-N-[(1S)-1-(4-chlorophenyl)-3-hydroxypropyl]-1-(7H-pyrrolo[2,3-d]pyrimidin– 4-yl)piperidine-4-carboxamide], the “target engagement in tumor tissue” value [1] is given as “greater target engagement”, the “probability of hyperglycemia AE grade ≥ 3 and increased blood glucose > 13.9 mmol/L” value ([2]; [2/5] 640 mg compared with [4/3] 480 mg) is given as “higher probability” and the “probabilities of hyperglycemia AE grade ≥ 3 and increased blood glucose > 13.9 mmol/L: effect of schedule” value ([2]; at a given dose) is given as “did not depend on the schedule”. The “probability of AEDD, AEDM and diarrhea AE grade ≥ 2: effect of schedule” value ([2]; at a given dose, intermittent schedules compared with continuous, statistically significant) was “lower probability of events”, the “probability of hyperglycemia AE grade ≥ 3 and increased blood glucose > 13.9 mmol/L: effect of schedule” value ([2]; at a given weekly dose, intermittent schedules compared with continuous, statistically significant) was “higher probability of events” and the “probability of rash AE grade ≥ 2, AEDD, AEDM, AE grade ≥ 3, SAE and diarrhea AE grade ≥ 2” value ([2]; continuous 320 mg (4480 mg weekly) compared with [4/3] 480 mg (3840 mg weekly)) was “higher”. The “relationships between exposure metrics and AE grade ≥ 1” value ([2]; logistic regression, significance level 0.005) was “No significant relationships”, the “exposure metrics with significant relationship to AE grade ≥ 3” value [2, 5] was “dose, PWD, AUC, AUCPWD, Cmax, and Cmin” and the “exposure metrics with significant relationship to AE leading to dose discontinuation” value [2, 5] was “PWD”. The “exposure metrics with significant relationship to AE leading to dose modification” value [2, 5] was “PWD, AUC, AUCPWD, Cmax, and Cmin”, the “exposure metrics with significant relationship to SAE” value [2, 5] was “dose, PWD, AUC, AUCPWD, Cmax, and Cmin” and the “exposure metrics with significant relationship to diarrhea AE grade ≥ 2” value [2, 5] was “PWD, AUCPWD”. The “exposure metrics with significant relationship to hyperglycemia AE grade ≥ 3” value [2, 5] was “dose, AUC, AUCPWD, Cmax, and Cmin”, the “exposure metrics with significant relationship to increased blood glucose > 13.9 mmol/L” value [2, 5] was “dose, AUC, AUCPWD, Cmax, and Cmin” and the “exposure metrics with significant relationship to rash AE grade ≥ 2” value [2, 5] was “PWD”. For the same molecule, the “recommended phase 2 dose” value ([3]; [2/5] schedule) was 640 mg BID, the “recommended phase 2 dose” value ([3]; [4/3] schedule) was 480 mg BID and the “recommended phase 2 dose” value ([3]; continuous schedule) was 320 mg BID. For the same molecule, the “dose-limiting toxicities (DLTs)” value ([3]; first-in-human study) was “diarrhea, rash, and hyperglycemia”, the AUC ([4]; 80 mg, Study 1, Continuous BID, 80 mg, PWD 1120 mg, N=5, median (range), read-out: AUCss(0–12 h)) was 870 ng·h/mL and the concentration at 12 h ([4]; 80 mg, Study 1, Continuous BID, 80 mg, PWD 1120 mg, N=5, median (range)) was 30 ng/mL. The AUC at 1 week [4, 6] was 12200 ng·h/mL, the Cmax [4, 6] was 150 ng/mL and the AUC ([4]; 80 mg, Study 4 (Japanese patients), Continuous BID, 80 mg, PWD 1120 mg, N=3, median (range), read-out: AUCss(0–12 h)) was 1480 ng·h/mL. For the same molecule, the concentration at 12 h ([4]; 80 mg, Study 4 (Japanese patients), Continuous BID, 80 mg, PWD 1120 mg, N=3, median (range)) was 60 ng/mL, the AUC at 1 week [4, 7] was 20700 ng·h/mL and the Cmax [4, 7] was 220 ng/mL. It also gave an AUC ([4]; 160 mg, Study 1, Continuous BID, 160 mg, PWD 2240 mg, N=5, median (range), read-out: AUCPWD) of 41800 ng·h/mL, an AUC ([4]; 160 mg, Study 1, Continuous BID, 160 mg, PWD 2240 mg, N=5, median (range), read-out: AUCss(0–12 h)) of 2990 ng·h/mL and a concentration at 12 h ([4]; 160 mg, Study 1, Continuous BID, 160 mg, PWD 2240 mg, N=5, median (range)) of 110 ng/mL. It also gave a Cmax ([4]; 160 mg, Study 1, Continuous BID, PWD 2240 mg, N=5, median (range)) of 420 ng/mL, an AUC ([4]; 240 mg, Study 1, Continuous BID, 240 mg, PWD 3360 mg, N=6, median (range), read-out: AUCPWD) of 44700 ng·h/mL and an AUC ([4]; 240 mg, Study 1, Continuous BID, 240 mg, PWD 3360 mg, N=6, median (range), read-out: AUCss(0–12 h)) of 3190 ng·h/mL. The concentration at 12 h ([4]; 240 mg, Study 1, Continuous BID, 240 mg, PWD 3360 mg, N=6, median (range)) was 110 ng/mL, the Cmax ([4]; 240 mg, Study 1, Continuous BID, PWD 3360 mg, N=6, median (range)) was 530 ng/mL and the AUC ([4]; 240 mg, Study 4 (Japanese patients), Continuous BID, 240 mg, PWD 3360 mg, N=7, median (range), read-out: AUCss(0–12 h)) was 5220 ng·h/mL. The concentration at 12 h ([4]; 240 mg, Study 4 (Japanese patients), Continuous BID, 240 mg, PWD 3360 mg, N=7, median (range)) was 170 ng/mL, the AUC at 1 week [4, 8] was 73000 ng·h/mL and the Cmax [4, 8] was 820 ng/mL. The AUC ([4]; 320 mg, Study 1, Continuous BID, 320 mg, PWD 4480 mg, N=12, median (range), read-out: AUCPWD) was 82000 ng·h/mL, the AUC ([4]; 320 mg, Study 1, Continuous BID, 320 mg, PWD 4480 mg, N=12, median (range), read-out: AUCss(0–12 h)) was 5860 ng·h/mL and the concentration at 12 h ([4]; 320 mg, Study 1, Continuous BID, 320 mg, PWD 4480 mg, N=12, median (range)) was 200 ng/mL. It also gave a Cmax ([4]; 320 mg, Study 1, Continuous BID, PWD 4480 mg, N=12, median (range)) of 870 ng/mL, an AUC ([4]; 320 mg, Study 4 (Japanese patients), Continuous BID, 320 mg, PWD 4480 mg, N=6, median (range), read-out: AUCss(0–12 h)) of 6560 ng·h/mL and a concentration at 12 h ([4]; 320 mg, Study 4 (Japanese patients), Continuous BID, 320 mg, PWD 4480 mg, N=6, median (range)) of 150 ng/mL. The AUC at 1 week [4, 9] was 91800 ng·h/mL, the Cmax [4, 9] was 1380 ng/mL and the AUC ([4]; 360 mg, Study 4 (Japanese patients), [4/3] BID, 360 mg, PWD 2880 mg, N=8, median (range), read-out: AUCss(0–12 h)) was 6100 ng·h/mL.
